Results reported in US20210198256A1, “COMPOUNDS FOR THE DEGRADATION OF BRD9 OR MTH1” (C4 Therapeutics, Inc., priority 2018, published 2021).

System: SMARTCAR-MTH1-wt-HiBiT (Jurkat.7 cells)
Experiment: HiBit Lytic Assay (HiBit DC50, MTH1 degraders of Table 2)
Format: cell-based, human
Details: Jurkat.7 SMARTCAR-MTH1-wt-HiBiT cells, compound treatment time 4 hr, 11-point half log dose response
Protocol: Example 3. HiBit Lytic Assay
• Compound is made at 10 mM, half log dilution, 11 points. • MDR plates can also be ordered from Frontier with same format. • 1. Barcode a 384LDV plate (384-well Low Dead Volume Microplate, Labcyte LP-0200) (Echo compatible) on the left side. • 2. Transfer 13.6 μL of 10 mM compound into column 1 of LDV plate (Labcyte). • 3. Fill column 2-11 and column 23 of MDR plate with 9.30 μL of DMSO. • 4. Serial dilute 3.16 fold from column 1 to 2 by transferring 4.30 μL from column 1 to column 2, and so on to column 11. *Change tip in every dilution to prevent compound carryover effect! • 5. Seal the plate with Plate Sealer, then store the MDR plate at room temperature for short term storage and in −20° C. for long term storage.
• Cells are treated with 30 nL of each compound at 10 mM, half log dilution, 11 points with final concentration of 1000 nM or 833 nM, half log dilution, 11 points, in duplicates. Final DMSO concentration is 0.1%. • 1. Barcode the plates made on the left side and label the plates with silver marker. • 2. Dispense with the following scheme: • a. 30 nL of compound into corresponding wells in cell plates via Echo550 with “MDR32_HiBiT16_30 nL”. Top concentration will be 1000 nM. • 3. Seal the plate with Plate Sealer.
• Cells are dispensed at density specified in Cell Line Table in 384-well microplate. • 1. Culture cells to between 50-80% of confluence in sterile culture flasks of appropriate size. • 2. For Adherent Cell Lines: • a. Aspirate off growth media in culture flask, and wash off the Phenol Red media with 5 mL of 1×PBS. • b. Add 5 mL of Trypsin to the cells, incubate at 37° C. for 5 minutes. • c. Add 5 mL of growth media to the trypsinzed cells, and resuspend. • 3. Remove 10 μL of cells, and resuspend the cells with 10 μL of Trypan Blue. Insert the solution to counting chamber slide, and count the cells via cell counter. • 4. Adjust the cell concentration to specified plating density, and strain the cells with cell strainer. • 5. Dispense the cells via E1-ClipTip™ Electronic Multichannel Pipettes or Multidrop™ Combi Reagent Dispenser with Standard tube dispensing cassette: • a. Prime the cassette with 10-20 mL of ddH2O. • b. Prime the cassette with 10-20 mL of cells. • c. Dispense the cells at low speed for 30 μL/well in Corning® 384 Well Low Flange Black Flat Bottom Polystyrene TC-Treated Microplate. • d. Wash the cassette with 10-20 mL of ddH2O, follow by 10-20 mL of 70% EtOH, then again with 10-20 mL of ddH2O. • 6. Incubate the plates at 37° C.×compound treatment time.
• 1. If not already, bring Nano-Glo® HiBiT Lytic Buffer to room temperature. • 2. Determine the amount of reagent needed. A volume of reagent equal to the volume of media in the well should be added (i.e. 30 μL of cells will need 30 μL of HiBiT Lytic reagent). • 3. Into a given volume of buffer, dilute the substrate 50-fold and the LgBiT protein 100-fold. For example, to make 10 ml of reagent, add the following: • 10 ml Nano-Glo® HiBiT Lytic Buffer • 200 μl Nano-Glo® HiBiT Lytic Substrate • 100 μl LgBiT Protein • The reagent should be reconstituted immediately before use. However, once reconstituted, it should take about 4 hours for the activity to decrease 10%. • 4. Cool down the cell plate to room temperature for 10-15 minutes without lid. • 5. Dispense the HiBiT Lytic Reagent via E1-ClipTip™ Electronic Multichannel Pipettes or Multidrop™ Combi Reagent Dispenser with Standard tube dispensing cassette: • a. Prime the cassette with 10-20 mL of ddH2O. • b. Prime the cassette with 10-20 mL of CTG 2.0. • c. Dispense the HiBiT Lytic Reagent at medium speed for 30 μL/well in cell plate to column 1-23 (column 24 will be used as plate background). • d. Wash the cassette with 10-20 mL of ddH2O, follow by 10-20 mL of 70% EtOH, then again with 10-20 mL of ddH2O. • 6. Incubate the cell plate at room temperature for 10 minutes without lid. • 7. […]

Row | Structure (SMILES) | DC50
1 | NC(=O)c1cnc2ccc(N3CCN(C(=O)CCCCCNC(=O)COc4cccc5c4C(=O)N(C4CCC(=O)NC4=O)C5=O)CC3)cc2c1Nc1ccccc1 (stereo not shown) [Compound 310, 6-(4-(6-(2-((2-(2,6-dioxopiperidin-3-yl)-1,3-dioxoisoindolin-4-yl)oxy)acetamido)hexanoyl)piperazin-1-yl)-4-(phenylamino)quinoline-3-carboxamide] | < 1000 nM
2 | CNC(=O)c1cnc2ccc(-c3ccc(C(=O)NCCCCNC(=O)COc4cccc5c4C(=O)N(C4CCC(=O)NC4=O)C5=O)nc3)cc2c1Nc1ccccc1 (stereo not shown) [Compound 357, 4-anilino-6-[6-[4-[[2-[2-(2,6-dioxo-3-piperidyl)-1,3-dioxo-isoindolin-4-yl]oxyacetyl]amino]butylcarbamoyl]-3-pyridyl]-N-methyl-quinoline-3-carboxamide] | < 100 nM
3 | CNc1c(C(=O)NC2CC2)cnc2cc(C(F)(F)F)c(-c3ccc(C(=O)NCCCCn4cc(C5(Nc6cccc7c6C(=O)N(C6CCC(=O)NC6=O)C7=O)CC5)nn4)c(F)c3)cc12 (stereo not shown) [Compound 421, N-cyclopropyl-6-[4-[4-[4-[1-[[2-(2,6-dioxo-3-piperidyl)-1,3-dioxo-isoindolin-4-yl]amino]cyclopropyl]triazol-1-yl]butylcarbamoyl]-3-fluoro-phenyl]-4-(methylamino)-7-(trifluoromethyl)quinoline-3-carboxamide] | < 100 nM
4 | CNC(=O)c1cnc2cc(OC)c(-c3ccc(C(=O)NCCCCNC(=O)CN(C)c4cccc5c4C(=O)N(C4CCC(=O)NC4=O)C5=O)cc3)cc2c1Nc1ccccc1 (stereo not shown) [Compound 345, 6-(4-((4-(2-((2-(2,6-dioxopiperidin-3-yl)-1,3-dioxoisoindolin-4-yl)(methyl)amino)acetamido)butyl)carbamoyl)phenyl)-7-methoxy-N-methyl-4-(phenylamino)quinoline-3-carboxamide] | < 100 nM
5 | CNC(=O)c1cnc2cc(C(F)(F)F)c(-c3ccc(C(=O)NCCCCNC(=O)CNc4cccc5c4C(=O)N(C4CCC(=O)NC4=O)C5=O)c(F)c3)cc2c1Nc1ccccc1 (stereo not shown) [Compound 375, 6-(4-((4-(2-((2-(2,6-dioxopiperidin-3-yl)-1,3-dioxoisoindolin-4-yl)amino)acetamido)butyl)carbamoyl)-3-fluorophenyl)-N-methyl-4-(phenylamino)-7-(trifluoromethyl)quinoline-3-carboxamide] | < 100 nM
6 | CC(NC(=O)CCCCNC(=O)CNc1cccc2c1C(=O)N(C1CCC(=O)NC1=O)C2=O)c1ccc(-c2cc3c(Nc4ccccc4)c(C(=O)NC4CC4)cnc3cc2F)cc1F (stereo not shown) [Compound 429, 4-anilino-N-cyclopropyl-6-[4-[1-[5-[[2-[[2-(2,6-dioxo-3-piperidyl)-1,3-dioxo-isoindolin-4-yl]amino]acetyl]amino]pentanoylamino]ethyl]-3-fluoro-phenyl]-7-fluoro-quinoline-3-carboxamide] | < 100 nM
7 | NC(=O)c1cnc2ccc(-c3ccc(C(=O)NCCCCNC(=O)CNc4cccc5c4C(=O)N(C4CCC(=O)NC4=O)C5=O)cc3)cc2c1Nc1ccccc1 (stereo not shown) [Compound 302, 6-(4-((4-(2-((2-(2,6-dioxopiperidin-3-yl)-1,3-dioxoisoindolin-4 yl)amino)acetamido)butyl)carbamoyl)phenyl)-4-(phenylamino)quinoline-3-carboxamide] | < 100 nM
8 | CNC(=O)c1cnc2ccc(C(=O)NCCCCCCCCCCCCNC(=O)COc3cccc4c3C(=O)N(C3CCC(=O)NC3=O)C4=O)cc2c1Nc1ccccc1 (stereo not shown) [Compound 455, N6-(12-(2-((2-(2,6-dioxopiperidin-3-yl)-1,3-dioxoisoindolin-4-yl)oxy)acetamido)dodecyl)-N3-methyl-4-(phenylamino)quinoline-3,6-dicarboxamide] | < 100 nM
9 | O=C(CNc1cccc2c1C(=O)N(C1CCC(=O)NC1=O)C2=O)NCCCCNC(=O)c1ccc(-c2cc3c(NC45CC(C4)C5)c(C(=O)NC4CC4)cnc3cc2F)cc1F (stereo not shown) [Compound 424, 4-(3-bicyclo[1.1.1]pentanylamino)-N-cyclopropyl-6-[4-[4-[[2-[[2-(2,6-dioxo-3-piperidyl)-1,3-dioxo-isoindolin-4-yl]amino]acetyl]amino]butylcarbamoyl]-3-fluoro-phenyl]-7-fluoro-quinoline-3-carboxamide] | < 100 nM
10 | CNC(=O)c1cnc2ccc(-c3cnn(CCCCCCNC(=O)COc4cccc5c4C(=O)N(C4CCC(=O)NC4=O)C5=O)c3)cc2c1Nc1ccccc1 (stereo not shown) [Compound 360, 4-anilino-6-[1-[6-[[2-[2-(2,6-dioxo-3-piperidyl)-1,3-dioxo-isoindolin-4-yl]oxyacetyl]amino]hexyl]pyrazol-4-yl]-N-methyl-quinoline-3-carboxamide] | < 100 nM

Further lines, results first:

Row | DC50 | Structure (SMILES)
11 | < 100 nM | CNC(=O)c1cnc2cc(OC)c(-c3ccc(C(=O)NCCCCNC(=O)[C@@H](C)Nc4cccc5c4C(=O)N(C4CCC(=O)NC4=O)C5=O)nc3)cc2c1Nc1ccccc1 (stereo partly drawn) [Compound 382, 6-(6-((4-((2R)-2-((2-(2,6-dioxopiperidin-3-yl)-1,3-dioxoisoindolin-4-yl)amino)propanamido)butyl)carbamoyl)pyridin-3-yl)-7-methoxy-N-methyl-4-(phenylamino)quinoline-3-carboxamide]
12 | < 100 nM | NC(=O)c1cnc2ccc(NCCCCCCCCCCNC(=O)CNc3cccc4c3C(=O)N(C3CCC(=O)NC3=O)C4=O)cc2c1Nc1ccccc1 (stereo not shown) [Compound 464, 6-((10-(2-((2-(2,6-dioxopiperidin-3-yl)-1,3-dioxoisoindolin-4-yl)amino)acetamido)decyl)amino)-4-(phenylamino)quinoline-3-carboxamide]
13 | < 100 nM | CNC(=O)c1cnc2cc(C(F)(F)F)c(-c3ccc(C(=O)NCCCCNC(=O)CNc4cccc5c4C(=O)N(C4CCC(=O)NC4=O)C5=O)nc3)cc2c1Nc1ccccc1 (stereo not shown) [Compound 388, 6-(6-((4-(2-((2-(2,6-dioxopiperidin-3-yl)-1,3-dioxoisoindolin-4-yl)amino)acetamido)butyl)carbamoyl)pyridin-3-yl)-N-methyl-4-(phenylamino)-7-(trifluoromethyl)quinoline-3-carboxamide]
14 | < 100 nM | CNC(=O)c1cnc2ccc(NCCCCCCCCCCNC(=O)COc3cccc4c3C(=O)N(C3CCC(=O)NC3=O)C4=O)cc2c1Nc1ccccc1 (stereo not shown) [Compound 449, 6-((10-(2-((2-(2,6-dioxopiperidin-3-yl)-1,3-dioxoisoindolin-4-yl)oxy)acetamido)decyl)amino)-N-methyl-4-(phenylamino)quinoline-3-carboxamide]
15 | < 100 nM | O=C1CCC(N2C(=O)c3cccc(OCc4cn(CCCCNC(=O)c5ccc(-c6cc7c(Nc8ccccc8)c(C(=O)NC8CC8)cnc7cc6C(F)(F)F)cc5F)nn4)c3C2=O)C(=O)N1 (stereo not shown) [Compound 415, 4-anilino-N-cyclopropyl-6-[4-[4-[4-[[2-(2,6-dioxo-3-piperidyl)-1,3-dioxo-isoindolin-4-yl]oxymethyl]triazol-1-yl]butylcarbamoyl]-3-fluoro-phenyl]-7-(trifluoromethyl)quinoline-3-carboxamide]
16 | < 100 nM | CNC(=O)c1cnc2cc(F)c(-c3ccc(C(=O)NCCCCn4cc(CNc5cccc6c5C(=O)N(C5CCC(=O)NC5=O)C6=O)nn4)nc3)cc2c1Nc1ccccc1 (stereo not shown) [Compound 389, 6-(6-((4-(4-(((2-(2,6-dioxopiperidin-3-yl)-1,3-dioxoisoindolin-4-yl)amino)methyl)-1H-1,2,3-triazol-1-yl)butyl)carbamoyl)pyridin-3-yl)-7-fluoro-N-methyl-4-(phenylamino)quinoline-3-carboxamide]
